# Assays:
# [1] = target: T1, recombinant human ALK5 (TGF-βR1) protein (Homo sapiens, UniProt P36897); test: Biochemical ALK5 (TGF-βR1) assay to measure pKi (LANCE Ultra ULight kinase assay); conditions: apparent pKi from pIC50 by Cheng-Prusoff, read-out: ALK5 pKi (converted)
# T1 construct: purchased Life Technologies PR9075A
# T1 sequence (P36897 34-503): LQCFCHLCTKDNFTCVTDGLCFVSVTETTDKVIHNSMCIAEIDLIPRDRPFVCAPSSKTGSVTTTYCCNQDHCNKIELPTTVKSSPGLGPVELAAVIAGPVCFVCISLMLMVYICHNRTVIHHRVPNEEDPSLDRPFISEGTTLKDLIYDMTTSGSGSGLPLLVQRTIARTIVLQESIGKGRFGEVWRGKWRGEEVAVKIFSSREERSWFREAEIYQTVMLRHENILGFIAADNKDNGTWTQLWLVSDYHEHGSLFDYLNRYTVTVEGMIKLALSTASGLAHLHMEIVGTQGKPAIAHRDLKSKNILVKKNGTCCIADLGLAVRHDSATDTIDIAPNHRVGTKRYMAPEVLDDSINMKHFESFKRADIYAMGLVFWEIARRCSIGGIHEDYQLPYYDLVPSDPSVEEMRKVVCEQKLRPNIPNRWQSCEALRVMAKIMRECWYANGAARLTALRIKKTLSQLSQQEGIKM
# Summary of the method: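 Compounds (10 μM to 25 pM) preincubated 60 minutes at room temperature with enzyme, then reaction run 60 minutes at 37° C with ATP added as 125 μM (5× final). Stopped with EDTA plus Eu-anti-phospho-Topoisomerase 2-alpha (Thr1342) antibody, TR-FRET read at 665 nm; pIC50 converted to pKi via Cheng-Prusoff.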
# [2] = system: TGF-β-stimulated SMAD3 phosphorylation in BEAS-2B cells; test: Cellular ALK5 potency assay, inhibition of TGF-β stimulated pSMAD3 formation in BEAS-2B cells; format: cell-based; conditions: Homo sapiens; inhibition of TGF-β stimulated pSMAD3 formation, BEAS-2B cells; read-out: BEAS2B pIC50 (converted)
# Summary of the method: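 Cells seeded overnight; rinse with supplemented HBSS; compound 1 h at 37 °C; TGF-β 10 ng/mL final, 30 min; lyse; AlphaLISA acceptor and detector beads 2 h apart, read next day. Potency expressed as pIC50.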
Ki [1] [nM],SMILES,IC50 [2] [nM]
0.0398 to 0.316,"Cc1cccc(-c2n[nH]cc2-c2ccc3ncc(N4CCN(Cc5cccnc5)CC4)cc3n2)n1 [Compound 132, 2-[3-(6-methyl-2-pyridyl)-1H-pyrazol-4-yl]-7-[4-(3-pyridylmethyl)piperazin-1-yl]-1,5-naphthyridine]",25.1 to 158
0.0398 to 0.316,"Cc1cccc(-c2[nH]cnc2-c2ccc3ncc(-c4ccnc(C(=O)OC5CCNCC5)c4)cc3c2)n1 [Compound 799, 4-piperidyl 4-[6-[5-(6-methyl-2-pyridyl)-1H-imidazol-4-yl]-3-quinolyl]pyridine-2-carboxylate]",200 to 1260
0.398 to 3.16,"Cc1cccc(-c2n[nH]cc2-c2ccc3nccc(NCCN4CCOCC4)c3n2)n1 [Compound 823, 6-[3-(6-methyl-2-pyridyl)-1H-pyrazol-4-yl]-N-(2-morpholinoethyl)-1,5-naphthyridin-4-amine]",200 to 1260
< 0.0316,"Cc1nc(-c2n[nH]cc2-c2ccc3ncc(-c4cn[nH]c4)cc3n2)ccc1F [Compound 482, 2-[3-(5-fluoro-6-methyl-2-pyridyl)-1H-pyrazol-4-yl]-7-(1H-pyrazol-4-yl)-1,5-naphthyridine]",< 20
0.398 to 3.16,"CCNC(=O)C1CCN(CCNc2cnc3ccc(-c4nc[nH]c4-c4cccc(C)n4)cc3c2)CC1 [Compound 643, N-ethyl-1-[2-[[6-[5-(6-methyl-2-pyridyl)-1H-imidazol-4-yl]-3-quinolyl]amino]ethyl]piperidine-4-carboxamide]",25.1 to 158
0.0398 to 0.316,"Cc1cccc(-c2[nH]ncc2-c2ccc3ncc(C(=O)OCCN4CCNCC4)cc3n2)n1 [Compound 277, 2-piperazin-1-ylethyl 6-[5-(6-methyl-2-pyridyl)-1H-pyrazol-4-yl]-1,5-naphthyridine-3-carboxylate]",200 to 1260
0.0398 to 0.316,"Cc1cccc(-c2[nH]cnc2-c2ccc3ncc(C(=O)OCC4CCNCC4)cc3c2)n1 [Compound 741, 4-piperidylmethyl 6-[5-(6-methyl-2-pyridyl)-1H-imidazol-4-yl]quinoline-3-carboxylate]",25.1 to 158
< 0.0316,"Cc1cccc(-c2n[nH]cc2-c2ccc3ncc(NCCN4CCNCC4)cc3n2)n1 [Compound 668, 6-[3-(6-methyl-2-pyridyl)-1H-pyrazol-4-yl]-N-(2-piperazin-1-ylethyl)-1,5-naphthyridin-3-amine]",200 to 1260
0.398 to 3.16,"Cc1cccc(-c2[nH]ncc2-c2ccc3ncc(C(=O)OCCN4CCCC4)cc3n2)n1 [Compound 361, 2-pyrrolidin-1-ylethyl 6-[5-(6-methyl-2-pyridyl)-1H-pyrazol-4-yl]-1,5-naphthyridine-3-carboxylate]",25.1 to 158
0.0398 to 0.316,"Cc1cccc(-c2n[nH]cc2-c2ccc3nccc(-c4cn(-c5ccccc5)nn4)c3n2)n1 [Compound 854, 2-[3-(6-methyl-2-pyridyl)-1H-pyrazol-4-yl]-8-(1-phenyltriazol-4-yl)-1,5-naphthyridine]",25.1 to 158
0.0398 to 0.316,"Cc1cccc(-c2[nH]cnc2-c2ccc3ncc(-c4cnc(C(=O)OC5CCNCC5)nc4)cc3c2)n1 [Compound 1131, 4-piperidyl 5-[6-[5-(6-methyl-2-pyridyl)-1H-imidazol-4-yl]-3-quinolyl]pyrimidine-2-carboxylate]",200 to 1260
0.0398 to 0.316,"Cc1cccc(-c2n[nH]cc2-c2ccc3ncc(-c4cc(C(F)(F)F)n[nH]4)cc3n2)n1 [Compound 139, 2-[3-(6-methyl-2-pyridyl)-1H-pyrazol-4-yl]-7-[3-(trifluoromethyl)-1H-pyrazol-5-yl]-1,5-naphthyridine]",25.1 to 158
< 0.0316,"Cc1cccc(-c2n[nH]cc2-c2ccc3ncc(N4CC[C@H](N(C)C)C4)cc3c2)n1 (racemic) [Compound 70, rac-(3S)-N,N-dimethyl-1-[6-[3-(6-methyl-2-pyridyl)-1H-pyrazol-4-yl]-3-quinolyl]pyrrolidin-3-amine]",25.1 to 158
0.0398 to 0.316,"COC(=O)c1cnc2ccc(-c3nc[nH]c3-c3cccc(C)n3)cc2c1 [Compound 732, methyl 6-[5-(6-methyl-2-pyridyl)-1H-imidazol-4-yl]quinoline-3-carboxylate]",< 20
< 0.0316,"Cc1cccc(-c2[nH]cnc2-c2ccc3ncc(-c4cn[nH]c4)cc3n2)n1 [Compound 644, 2-(5-(6-methylpyridin-2-yl)-1H-imidazol-4-yl)-7-(1H-pyrazol-4-yl)-1,5-naphthyridine]",< 20
0.0398 to 0.316,"Cc1nc(-c2n[nH]cc2-c2ccc3ncc(-c4nnn5c4CNCC5)cc3n2)ccc1F [Compound 466, 2-[3-(5-fluoro-6-methyl-2-pyridyl)-1H-pyrazol-4-yl]-7-(4,5,6,7-tetrahydrotriazolo[1,5-a]pyrazin-3-yl)-1,5-naphthyridine]",25.1 to 158
0.0398 to 0.316,"Cc1cccc(-c2[nH]cnc2-c2ccc3ncc(-c4cccc(NC5CNC5)n4)cc3c2)n1 [Compound 180, N-(azetidin-3-yl)-6-[6-[5-(6-methyl-2-pyridyl)-1H-imidazol-4-yl]-3-quinolyl]pyridin-2-amine]",1580 to 10000
0.0398 to 0.316,"Cc1cccc(-c2n[nH]cc2-c2ccc3ncc(NC(=O)CCN4CCOCC4)cc3n2)n1 [Compound 286, N-[6-[3-(6-methyl-2-pyridyl)-1H-pyrazol-4-yl]-1,5-naphthyridin-3-yl]-3-morpholino-propanamide]",25.1 to 158
0.0398 to 0.316,"Cc1cccc(-c2n[nH]cc2-c2ccc3ncc(-c4cnn(CC(=O)N5CCNCC5)c4)cc3n2)n1 [Compound 295, 2-[4-[6-[3-(6-methyl-2-pyridyl)-1H-pyrazol-4-yl]-1,5-naphthyridin-3-yl]pyrazol-1-yl]-1-piperazin-1-yl-ethanone]",200 to 1260
0.398 to 3.16,"Cc1cccc(-c2c(-c3ccc4ncc(N5CCC(N(C)C)C5)cc4c3)nnn2Cc2ccccc2)n1 (stereo not drawn) [Compound 38, 1-[6-[1-benzyl-5-(6-methyl-2-pyridyl)triazol-4-yl]-3-quinolyl]-N,N-dimethyl-pyrrolidin-3-amine]",1580 to 10000
0.398 to 3.16,"Cc1cccc(-c2n[nH]cc2-c2ccc3ncc(-c4nc(C(=O)O)co4)cc3n2)n1 [Compound 546, 2-[6-[3-(6-methyl-2-pyridyl)-1H-pyrazol-4-yl]-1,5-naphthyridin-3-yl]oxazole-4-carboxylic acid]",1580 to 10000
0.0398 to 0.316,"COC(=O)[C@H]1CCCCN1CCNc1cnc2ccc(-c3nc[nH]c3-c3cccc(C)n3)cc2c1 [Compound 706, methyl (2R)-1-[2-[[6-[5-(6-methyl-2-pyridyl)-1H-imidazol-4-yl]-3-quinolyl]amino]ethyl]piperidine-2-carboxylate]",25.1 to 158
< 0.0316,"CNCCn1cc(-c2cnc3ccc(-c4nn[nH]c4-c4cccc(C)n4)cc3c2)cn1 [Compound 125, N-methyl-2-(4-(6-(5-(6-methylpyridin-2-yl)-1H-1,2,3-triazol-4-yl)quinolin-3-yl)-1H-pyrazol-1-yl)ethan-1-amine]",25.1 to 158
< 0.0316,"Cc1cccc(-c2n[nH]cc2-c2ccc3ncc(N4CCN(CC#N)CC4)cc3n2)n1 [Compound 299, 2-[4-[6-[3-(6-methyl-2-pyridyl)-1H-pyrazol-4-yl]-1,5-naphthyridin-3-yl]piperazin-1-yl]acetonitrile]",< 20

# Reference: patent US11590116B2 (THERAVANCE BIOPHARMA R&D IP, LLC, priority 2019, dated 2023)
